Results as given in patent US6737240B1, “Methods of screening for a multi-drug resistance conferring peptide” (Rigel Pharmaceuticals, Inc., priority 1999, dated 2004).

How the values were obtained:
Bcl-xL = assay: Endogenous anti-apoptotic protein level; format: cell-based; conditions: cells expressing RGP8.5, presence or absence of Dox; data not shown
HeLa cells = assay: Growth rate of GFP positive versus GFP negative population; format: cell-based; conditions: data not shown

Substance: MGEFLIVKVVWGRMVCWV-LVVRRFVLVIVLENSLSSNQGPP [RGP8.5]
- Bcl-xL expression level (Bcl-xL): same expression level
- impact on cell growth (HeLa cells): negative impact
